Consider 37 compounds from the NIST ThermoML archive (doi:10.1016/j.jct.2015.07.042).

The series in a line: activity coefficient (dimensionless); of the first substance listed, at infinite dilution; xn = mol fraction of the nth substance listed. The settings on record: 101 kPa, Liquid, Chromatography, x1 = 0.

Numbers after ± are expanded uncertainties.

Take `COC(C)(C)C` [2-methoxy-2-methylpropane] + CCCCn1cc[n+](C)c1.[Cl-]: the activity coefficient was determined as 24.6 ± 1.7 (358.15 K), 23.8 ± 1.6 (368.15 K), 23 ± 1.6 (378.15 K) and 22.9 ± 1.6 (388.15 K).
Regarding `CCCCCCCCC` [nonane] + CCCCn1cc[n+](C)c1.CS(=O)(=O)[O-], the activity coefficient is, setting by setting: (358.15 K) 251 ± 17; (368.15 K) 239 ± 16; (378.15 K) 229 ± 16; (388.15 K) 223 ± 15.
For `Cc1ccccc1` [toluene] + CCCCn1cc[n+](C)c1.[Cl-] the same measures were 7.78 ± 0.53, 7.91 ± 0.54, 8.09 ± 0.55 and 8.36 ± 0.57.
Turning to `CCCC(C)=O` [pentan-2-one] + CCCCn1cc[n+](C)c1.CS(=O)(=O)[O-], the activity coefficient came to 4.5 ± 0.31 (358.15 K), 4.59 ± 0.31 (368.15 K), 4.76 ± 0.32 (378.15 K) and 4.91 ± 0.33 (388.15 K).
For `CCc1ccccc1` [ethylbenzene] + CCCCn1cc[n+](C)c1.CS(=O)(=O)[O-] the same measures were 8.45 ± 0.58, 8.61 ± 0.59, 8.76 ± 0.6 and 9.05 ± 0.62.
For the compound `CCOC(C)(C)C` [2-ethoxy-2-methylpropane] + CCCCn1cc[n+](C)c1.COP(=O)([O-])OC, the activity coefficient reads like this: (358.15 K) 12.8 ± 0.87; (368.15 K) 12.8 ± 0.87; (378.15 K) 12.9 ± 0.88; (388.15 K) 12.9 ± 0.88.
Take `c1ccsc1` [thiophene] + CCCCn1cc[n+](C)c1.CS(=O)(=O)[O-]: the activity coefficient stood at 1.72 ± 0.12 (358.15 K), 1.81 ± 0.12 (368.15 K), 1.94 ± 0.13 (378.15 K) and 2.05 ± 0.14 (388.15 K).
The corresponding values for `CCOC(C)=O` [ethyl acetate] + CCCCn1cc[n+](C)c1.COP(=O)([O-])OC are 3.81 ± 0.26, 3.91 ± 0.27, 4.01 ± 0.27 and 4.18 ± 0.28.
As to `CCC(=O)CC` [pentan-3-one] + CCCCn1cc[n+](C)c1.CS(=O)(=O)[O-], the activity coefficient was 4.68 ± 0.32 (358.15 K), 4.79 ± 0.33 (368.15 K), 4.88 ± 0.33 (378.15 K) and 5.09 ± 0.35 (388.15 K).
The corresponding values for `CC#N` [acetonitrile] + CCCCn1cc[n+](C)c1.[Cl-] are 1.12 ± 0.07, 1.16 ± 0.07, 1.21 ± 0.08 and 1.28 ± 0.08.
For `C1=CCCCC1` [cyclohexene] + CCCCn1cc[n+](C)c1.COP(=O)([O-])OC, the activity coefficient (358.15 K) came to 7.15 ± 0.49, the activity coefficient (368.15 K) came out at 7.13 ± 0.49, the activity coefficient (378.15 K) was determined as 7.11 ± 0.48 and the activity coefficient (388.15 K) came out at 7.11 ± 0.48.
With `C=CCCCCCCCC` [1-decene] + CCCCn1cc[n+](C)c1.CS(=O)(=O)[O-], the activity coefficient by setting is: (358.15 K) 193 ± 13; (368.15 K) 187 ± 13; (378.15 K) 182 ± 12; (388.15 K) 179 ± 12.
For `CCC(C)(C)OC` [2-methoxy-2-methylbutane] + CCCCn1cc[n+](C)c1.[Cl-], the activity coefficient reads like this: (358.15 K) 34 ± 2.3; (368.15 K) 33.1 ± 2.3; (378.15 K) 32.2 ± 2.2; (388.15 K) 32.1 ± 2.2.
Take `CCC(C)(C)OC` [2-methoxy-2-methylbutane] + CCCCn1cc[n+](C)c1.CS(=O)(=O)[O-]: the activity coefficient (358.15 K) was determined as 23.8 ± 1.6, the activity coefficient (368.15 K) turned out to be 24.2 ± 1.6, the activity coefficient (378.15 K) amounted to 24.7 ± 1.7 and the activity coefficient (388.15 K) stood at 25.3 ± 1.7.
Turning to `C1CCCCCCC1` [cyclooctane] + CCCCn1cc[n+](C)c1.COP(=O)([O-])OC, the activity coefficient turned out to be 18.8 ± 1.3 (358.15 K), 18.2 ± 1.2 (368.15 K), 17.7 ± 1.2 (378.15 K) and 17.3 ± 1.2 (388.15 K).
Take `CCCCCCCCCC` [decane] + CCCCn1cc[n+](C)c1.COP(=O)([O-])OC: the activity coefficient was determined as 93.4 ± 6.4 (358.15 K), 88.5 ± 6.1 (368.15 K), 84.7 ± 5.8 (378.15 K) and 81.6 ± 5.6 (388.15 K).
The corresponding values for `CCOCC` [diethyl ether] + CCCCn1cc[n+](C)c1.CS(=O)(=O)[O-] are 14.7 ± 1, 14.9 ± 1, 15 ± 1 and 15.3 ± 1.1.
As to `CC(C)(C)O` [2-methylpropan-2-ol] + CCCCn1cc[n+](C)c1.[Cl-], the activity coefficient reads like this: (398.15 K) 0.987 ± 0.062; (408.15 K) 1.07 ± 0.067; (418.15 K) 1.16 ± 0.074; (428.15 K) 1.27 ± 0.082.
As for `CCC(C)(C)OC` [2-methoxy-2-methylbutane] + CCCCn1cc[n+](C)c1.COP(=O)([O-])OC, the activity coefficient (358.15 K) is 9.5 ± 0.65, the activity coefficient (368.15 K) was found to be 9.61 ± 0.66, the activity coefficient (378.15 K) came to 9.66 ± 0.66 and the activity coefficient (388.15 K) stood at 9.75 ± 0.67.
For `C#CCCCCCC` [1-octyne] + CCCCn1cc[n+](C)c1.[Cl-], the activity coefficient is, setting by setting: (358.15 K) 18.3 ± 1.2; (368.15 K) 19.2 ± 1.3; (378.15 K) 19.7 ± 1.4; (388.15 K) 20.4 ± 1.4.
As to `C=CCCCCC` [1-heptene] + CCCCn1cc[n+](C)c1.COP(=O)([O-])OC, the activity coefficient by setting is: (358.15 K) 19.6 ± 1.3; (368.15 K) 19.4 ± 1.3; (378.15 K) 19.1 ± 1.3; (388.15 K) 18.9 ± 1.3.
Turning to `CCc1ccccc1` [ethylbenzene] + CCCCn1cc[n+](C)c1.COP(=O)([O-])OC, the activity coefficient reads like this: (358.15 K) 5.73 ± 0.39; (368.15 K) 5.87 ± 0.4; (378.15 K) 5.97 ± 0.41; (388.15 K) 6.26 ± 0.43.
`CC1CCCCC1` [methylcyclohexane] + CCCCn1cc[n+](C)c1.COP(=O)([O-])OC: the activity coefficient is, setting by setting: (358.15 K) 17.4 ± 1.2; (368.15 K) 16.8 ± 1.1; (378.15 K) 16.4 ± 1.1; (388.15 K) 16.1 ± 1.1.
Turning to `CCCCO` [butan-1-ol] + CCCCn1cc[n+](C)c1.CS(=O)(=O)[O-], the activity coefficient amounted to 0.937 ± 0.059 (398.15 K), 0.984 ± 0.062 (408.15 K), 1.02 ± 0.064 (418.15 K) and 1.07 ± 0.068 (428.15 K).
With `CC(C)O` [propan-2-ol] + CCCCn1cc[n+](C)c1.[Cl-], the activity coefficient reads like this: (398.15 K) 0.542 ± 0.04; (408.15 K) 0.577 ± 0.041; (418.15 K) 0.619 ± 0.043; (428.15 K) 0.668 ± 0.045.
Turning to `Cc1cccc(C)c1` [1,3-dimethylbenzene] + CCCCn1cc[n+](C)c1.COP(=O)([O-])OC, the activity coefficient reads like this: (358.15 K) 6.49 ± 0.44; (368.15 K) 6.6 ± 0.45; (378.15 K) 6.73 ± 0.46; (388.15 K) 7 ± 0.48.
For `c1ccncc1` [pyridine] + CCCCn1cc[n+](C)c1.[Cl-] the same measures were 1.47 ± 0.1, 1.55 ± 0.1, 1.64 ± 0.11 and 1.78 ± 0.12.
As for `CCC(C)O` (stereo not drawn) [butan-2-ol] + CCCCn1cc[n+](C)c1.COP(=O)([O-])OC, the activity coefficient is, setting by setting: (398.15 K) 0.327 ± 0.032; (408.15 K) 0.365 ± 0.033; (418.15 K) 0.406 ± 0.034; (428.15 K) 0.451 ± 0.036.
As to `C#CCCC` [1-pentyne] + CCCCn1cc[n+](C)c1.[Cl-], the activity coefficient (358.15 K) is 4.89 ± 0.33, the activity coefficient (368.15 K) is 5.25 ± 0.36, the activity coefficient (378.15 K) is 5.51 ± 0.38 and the activity coefficient (388.15 K) is 5.78 ± 0.39.
For `COC(C)=O` [methyl ethanoate] + CCCCn1cc[n+](C)c1.CS(=O)(=O)[O-] the same measures were 2.94 ± 0.2, 3.03 ± 0.21, 3.14 ± 0.21 and 3.33 ± 0.23.
Consider `CC(C)(C)O` [2-methylpropan-2-ol] + CCCCn1cc[n+](C)c1.CS(=O)(=O)[O-], for which the activity coefficient (398.15 K) worked out at 1.28 ± 0.083, the activity coefficient (408.15 K) turned out to be 1.39 ± 0.09, the activity coefficient (418.15 K) came to 1.48 ± 0.098 and the activity coefficient (428.15 K) stood at 1.59 ± 0.11.
Take `Cc1ccccc1C` [1,2-dimethylbenzene] + CCCCn1cc[n+](C)c1.COP(=O)([O-])OC: the activity coefficient was determined as 5.54 ± 0.38 (358.15 K), 5.7 ± 0.39 (368.15 K), 5.79 ± 0.39 (378.15 K) and 6.03 ± 0.41 (388.15 K).
In the case of `C=Cc1ccccc1` [styrene] + CCCCn1cc[n+](C)c1.CS(=O)(=O)[O-], the activity coefficient reads like this: (358.15 K) 3.79 ± 0.26; (368.15 K) 3.96 ± 0.27; (378.15 K) 4.2 ± 0.29; (388.15 K) 4.4 ± 0.3.
Turning to `C=C(C)c1ccccc1` [(1-methylethenyl)benzene] + CCCCn1cc[n+](C)c1.CS(=O)(=O)[O-], the activity coefficient is 6.43 ± 0.44 (358.15 K), 6.71 ± 0.46 (368.15 K), 6.96 ± 0.47 (378.15 K) and 7.41 ± 0.51 (388.15 K).
As for `CCCO` [propan-1-ol] + CCCCn1cc[n+](C)c1.[Cl-], the activity coefficient reads like this: (398.15 K) 0.408 ± 0.034; (408.15 K) 0.434 ± 0.035; (418.15 K) 0.464 ± 0.036; (428.15 K) 0.501 ± 0.038.
As to `CC(C)CO` [2-methyl-1-propanol] + CCCCn1cc[n+](C)c1.[Cl-], the activity coefficient by setting is: (398.15 K) 0.54 ± 0.039; (408.15 K) 0.576 ± 0.041; (418.15 K) 0.615 ± 0.043; (428.15 K) 0.665 ± 0.045.
As to `C=CCCCCCC` [oct-1-ene] + CCCCn1cc[n+](C)c1.CS(=O)(=O)[O-], the activity coefficient is, setting by setting: (358.15 K) 88.1 ± 6; (368.15 K) 86.8 ± 6; (378.15 K) 86.5 ± 5.9; (388.15 K) 85.6 ± 5.9.
